Earlier results, collected in patent US7442671B2, “O-phenylphenol/alkoxylated amine wood protection compositions” (Contechem Inc., priority 2004, dated 2008).

Oc1ccccc1-c1ccccc1 [O-phenylphenol, o-phenylphenol]
solubility in water: only slightly soluble in water
